Each structure is given as a SMILES string.

The test system of one assay is CEW (Helicoverpa zea). The assay can be described thus: Bioassay on Corn Earworm (CEW), 128-well diet tray. The class given is in vivo. The settings on record: Helicoverpa zea, 168 h; percent mortality, second instar larvae, 0.5 μg/cm^2 on diet, five to seven days; read-out: Rating CEW (*Tested at 0.5 μg/cm^2). Here is the method: (§1) Certain molecules disclosed in this document were tested against BAW and CEW using procedures described in the following examples. In the reporting of the results, the “BAW & CEW Rating Table” was used (See Table Section).
Bioassays on CEW (Helicoverpa zea)
(§2) Trays were covered with a clear self-adhesive cover and held at 25° C., 14:10 light-dark for five to seven days. Percent mortality was recorded for the larvae in each well; activity in the eight wells was then averaged. The results are indicated in the table entitled “Table ABC: Biological Results” (See Table Section).
In the case of `CC(C)(C)c1ccccc1N1C(=O)CS/C1=N\C(=O)Nc1ccc(-c2ncn(-c3ccc(OC(F)(F)F)cc3)n2)cc1` [Molecule A95], the pest or weed control at 0.5 µg/cm2 lay within 50 to 100%.
Same read-out and setting: the result for `CC(C)c1ccccc1N1C(=O)CS/C1=N\C(=O)Nc1ccc(-c2nnc(-c3ccc(OC(F)(F)C(F)(F)F)cc3)o2)cc1` [Molecule A102, (Z)-1-(3-(2-isopropylphenyl)-4-oxothiazolidin-2-ylidene)-3-(4-(5-(4-(perfluoroethoxy)phenyl)-1,3,4-oxadiazol-2-yl)phenyl)urea] reads 50 to 100%.
Still for that read-out and setting: the result for `Cc1cc(C)cc(N2C(=O)CS/C2=N\C(=O)Nc2ccc(-c3ncn(-c4ccc(OC(F)(F)F)cc4)n3)cc2)c1` [Molecule A104] reads 50 to 100%.

Still in this assay, the particulars now being: Helicoverpa zea, 168 h; percent mortality, second instar larvae, 50 μg/cm^2 on diet, five to seven days; read-out: Rating CEW.
As to `CC(C)c1ccccc1N/C(S)=C(\C#N)C(=O)Nc1ccc(-c2ncn(-c3ccc(OC(F)(F)F)cc3)n2)cc1` [Molecule A25, (Z)-2-cyano-3-((2-isopropylphenyl)amino)-3-mercapto-N-(4-(1-(4-(trifluoromethoxy)phenyl)-1H-1,2,4-triazol-3-yl)phenyl)acrylamide], the pest or weed control at 50 µg/cm2 fell in the range of 0 to 50%.
The same measure, in the same setting: the value for `N#C/C(C(=O)Nc1ccc(-c2ncn(-c3ccc(OC(F)(F)F)cc3)n2)cc1)=C(/S)Nc1ccccc1-c1ccccc1` [Molecule A27, (Z)-3-([1,1′-Biphenyl]-2-ylamino)-2-cyano-3-mercapto-N-(4-(1-(4-(trifluoromethoxy)phenyl)-1H-1,2,4-triazol-3-yl)phenyl)acrylamide] was 0 to 50%; that for `Cc1cccc(C)c1N/C(S)=C(\C#N)C(=O)Nc1ccc(-c2ncn(-c3ccc(OC(F)(F)F)cc3)n2)cc1` [Molecule A28, (Z)-2-Cyano-3-mercapto-3-((2,6-dimethylphenyl)amino)-N-(4-(1-(4-(trifluoromethoxy)phenyl)-1H-1,2,4-triazol-3-yl)phenyl)acrylamide] was 50 to 100%; that for `Cc1cc(C)c(-n2c(C)cs/c2=N\C(=O)Nc2ccc(-c3ncn(-c4ccc(OC(F)(F)F)cc4)n3)cc2)c(C)c1` [Molecule A43, (Z)-1-(3-mesityl-4-methylthiazol-2(3H)-ylidene)-3-(4-(1-(4-(trifluoromethoxy)phenyl)-1H-1,2,4-triazol-3-yl)phenyl)urea] was 50 to 100%.

The next assay concerns BAW (Spodoptera exigua). The experiment in a line: Bioassay on Beet Armyworm (BAW), 128-well diet tray. The settings on record: Spodoptera exigua, 168 h, read-out: Rating BAW. It is filed as in vivo. As for the experimental part: as §1
Bioassays on BAW (Spodoptera exigua)
as §2
Regarding `CC(C)c1ccccc1N/C(S)=N/C(=O)Nc1ccc(-c2ncn(-c3ccc(C(F)(F)C(F)(F)C(F)(F)F)cc3)n2)cc1` [Molecule A113], the pest or weed control at 50 µg/cm2 is 50 to 100%.

Staying with this assay, now noted: Spodoptera exigua, 168 h; percent mortality, second instar larvae, 50 μg/cm^2 on diet, five to seven days; read-out: Rating BAW.
`Cc1cccc(C)c1-n1c(C)cs/c1=N\C(=O)Nc1ccc(-c2ncn(-c3ccc(OC(F)(F)F)cc3)n2)cc1` [Molecule A42]: the pest or weed control at 50 µg/cm2 fell in the range of 0 to 50%.
Consider `O=C(/N=C1\SCC(=O)N1c1ccccc1C1CC1)Nc1ccc(-c2ncn(-c3ccc(OC(F)(F)F)cc3)n2)cc1` [Molecule A66], for which the pest or weed control at 50 µg/cm2 was in the range of 50 to 100%.
On the same count and under the same terms, the result for `Cc1cccc(N/C(S)=N/C(=O)Nc2ccc(-c3ncn(-c4ccc(OC(F)(F)F)cc4)n3)cc2)c1C` [Molecule A71] reads 50 to 100%; that for `Cc1ccc(C(C)C)c(N/C(S)=N/C(=O)Nc2ccc(-c3ncn(-c4ccc(OC(F)(F)F)cc4)n3)cc2)c1` [Molecule A83], 50 to 100%; that for `CC(C)c1ccccc1N/C(S)=N/C(=O)Nc1ccc(-c2nnc(-c3ccc(OC(F)(F)C(F)(F)F)cc3)o2)cc1` [Molecule A96, N-[[(2-isopropyllphenyl)amino]thioxomethyl]-N′-((4-(5-(4-(perfluoroethoxy)phenyl)-1,3,4-oxadiazol-2-yl)phenyl))urea], 50 to 100%.
The same measure, in the same setting: the value for `CC(C)c1ccccc1N/C(S)=N/C(=O)Nc1ccc(-c2ncn(-c3ccc(OC(F)(F)C(F)(F)F)cc3)n2)cc1` [Molecule A112] was 50 to 100%.
